Test results published in article PMC6693643 (ACS chemical biology, 2017).

Experiments:
MtuATP-PRT [1] = target: T1, MtuATP-PRT (Mycobacterium tuberculosis, UniProt P9WMN1)
MtuATP-PRT [2] = target: T1, MtuATP-PRT; assay: competitive kinetic isotope effects, scintillation counting; type: biochemical; conditions: reverse reaction; co-substrate PRATP; alternative to pyrophosphate

T1 sequence (P9WMN1 whole entry): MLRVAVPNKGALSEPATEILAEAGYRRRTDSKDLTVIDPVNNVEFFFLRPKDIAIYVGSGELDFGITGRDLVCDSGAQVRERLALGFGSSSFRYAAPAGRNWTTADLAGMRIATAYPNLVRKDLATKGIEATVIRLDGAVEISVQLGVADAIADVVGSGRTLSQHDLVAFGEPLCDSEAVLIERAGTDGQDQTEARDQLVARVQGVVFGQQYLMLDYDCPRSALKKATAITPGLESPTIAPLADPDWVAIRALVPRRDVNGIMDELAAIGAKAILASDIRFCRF

Structure (SMILES) | X-ray crystal structure (co-crystallisation) (MtuATP-PRT [1]) | competitive kinetic isotope effects, scintillation counting (MtuATP-PRT [2])
Nc1ncnc2c1ncn2[C@@H]1O[C@H](COP(=O)(O)OP(=O)(O)OP(=O)(O)O)[C@@H](O)[C@H]1O [ATP] | a structure with ATP bound to MtuATP-PRT (PDB: 5U99) was obtained | –
O=C(O)CP(=O)(O)O [phosphonoacetic acid] | – | the ATP-PRT catalyzed reaction was studied using phosphonoacetic acid (PA) as an alternative
